SMILES strings stand for the structures. ≈ marks a conversion by molar mass, not a printed value.

For experiment [1], the system named is Staphylococcus aureus. Kind of experiment: Antibacterial activity against methicillin-susceptible Staphylococcus aureus ATCC 29213 by CLSI M100-S17 protocol based broth dilution method. The class given is functional. On the technique in general: In broth dilution the organism is exposed to a series of concentrations in liquid medium.
For experiment [2], the system named is Staphylococcus aureus. Kind of experiment: Antibacterial activity against methicillin-resistant Staphylococcus aureus isolate SA1114 by CLSI M100-S17 protocol based broth dilution method. The class given is functional.

For `CC[C@@H](C)[C@@H](NC(=O)[C@@H](CCC(N)=O)NC(=O)[C@H](CO)NC(=O)[C@@H](NC(=O)[C@@H](Cc1ccccc1)NC)[C@@H](C)CC)C(=O)N[C@H](C(=O)N[C@@H](CO)C(=O)N[C@H]1C(=O)N[C@@H](C)C(=O)N[C@@H](CSC(C)(C)C)C(=O)N[C@@H]([C@@H](C)CC)C(=O)O[C@H]1C)[C@@H](C)CC`, the MIC – broadly, the lowest concentration that inhibits growth of the organism – was 2 µg/mL (≈ 1.6 µM) in the experiment with Staphylococcus aureus [1] and 4 µg/mL (≈ 3.21 µM) with Staphylococcus aureus [2].

`CC[C@@H](C)[C@@H](NC(=O)[C@@H](CCC(N)=O)NC(=O)[C@H](CO)NC(=O)[C@@H](NC(=O)[C@@H](Cc1ccccc1)NC)[C@@H](C)CC)C(=O)N[C@H](C(=O)N[C@@H](CO)C(=O)N[C@H]1C(=O)N[C@@H](C)C(=O)N[C@@H](C2CCCCC2)C(=O)N[C@@H]([C@@H](C)CC)C(=O)O[C@H]1C)[C@@H](C)CC`: the MIC was 0.25 µg/mL (≈ 0.204 µM) against Staphylococcus aureus [1] and 1 µg/mL (≈ 0.815 µM) in the experiment on Staphylococcus aureus [2].

For the molecule `CC[C@@H](C)[C@@H](NC(=O)[C@@H](CCC(N)=O)NC(=O)[C@H](CO)NC(=O)[C@@H](NC(=O)[C@@H](Cc1ccccc1)NC)[C@@H](C)CC)C(=O)N[C@H](C(=O)N[C@@H](CO)C(=O)N[C@H]1C(=O)N[C@@H](C)C(=O)N[C@@H](Cc2c[nH]c3ccccc23)C(=O)N[C@@H]([C@@H](C)CC)C(=O)O[C@H]1C)[C@@H](C)CC`, the MIC in the experiment with Staphylococcus aureus [1] was 8 µg/mL (≈ 6.28 µM); in the experiment with Staphylococcus aureus [2] it was 8 to 16 µg/mL (≈ 6.28 to 12.6 µM).

For `CCC[C@@H]1NC(=O)[C@H](C)NC(=O)[C@H](NC(=O)[C@H](CO)NC(=O)[C@@H](NC(=O)[C@H](NC(=O)[C@@H](CCC(N)=O)NC(=O)[C@H](CO)NC(=O)[C@@H](NC(=O)[C@@H](Cc2ccccc2)NC)[C@@H](C)CC)[C@H](C)CC)[C@@H](C)CC)[C@H](C)OC(=O)[C@H]([C@@H](C)CC)NC1=O`, the MIC with Staphylococcus aureus [1] was 0.25 µg/mL (≈ 0.211 µM); against Staphylococcus aureus [2] it was 1 to 2 µg/mL (≈ 0.842 to 1.68 µM).

As for `CC[C@@H]1NC(=O)[C@H](C)NC(=O)[C@H](NC(=O)[C@H](CO)NC(=O)[C@@H](NC(=O)[C@H](NC(=O)[C@@H](CCC(N)=O)NC(=O)[C@H](CO)NC(=O)[C@@H](NC(=O)[C@@H](Cc2ccccc2)NC)[C@@H](C)CC)[C@H](C)CC)[C@@H](C)CC)[C@H](C)OC(=O)[C@H]([C@@H](C)CC)NC1=O`, the MIC came out at 1 µg/mL (≈ 0.852 µM) with Staphylococcus aureus [1] and 4 µg/mL (≈ 3.41 µM) against Staphylococcus aureus [2].

As to `CC[C@@H](C)[C@@H](NC(=O)[C@@H](CCC(N)=O)NC(=O)[C@H](CO)NC(=O)[C@@H](NC(=O)[C@@H](Cc1ccccc1)NC)[C@@H](C)CC)C(=O)N[C@H](C(=O)N[C@@H](CO)C(=O)N[C@H]1C(=O)N[C@@H](C)C(=O)N[C@@H]([C@@H](C)CC)C(=O)N[C@@H]([C@@H](C)CC)C(=O)O[C@H]1C)[C@@H](C)CC`, the MIC turned out to be 0.5 µg/mL (≈ 0.416 µM) against Staphylococcus aureus [1] and 1 µg/mL (≈ 0.832 µM) against Staphylococcus aureus [2].

For the molecule `CC[C@@H](C)[C@@H](NC(=O)[C@@H](CCC(N)=O)NC(=O)[C@H](CO)NC(=O)[C@@H](NC(=O)[C@@H](Cc1ccccc1)NC)[C@@H](C)CC)C(=O)N[C@H](C(=O)N[C@@H](CO)C(=O)N[C@H]1C(=O)N[C@@H](C)C(=O)N[C@@H](CC2CCCCC2)C(=O)N[C@@H]([C@@H](C)CC)C(=O)O[C@H]1C)[C@@H](C)CC`, the MIC in the experiment on Staphylococcus aureus [1] worked out at 0.5 µg/mL (≈ 0.403 µM); with Staphylococcus aureus [2], 2 µg/mL (≈ 1.61 µM).

`CC[C@@H](C)[C@@H](NC(=O)[C@@H](CCC(N)=O)NC(=O)[C@H](CO)NC(=O)[C@@H](NC(=O)[C@@H](Cc1ccccc1)NC)[C@@H](C)CC)C(=O)N[C@H](C(=O)N[C@@H](CO)C(=O)N[C@H]1C(=O)N[C@@H](C)C(=O)N[C@@H](CC2CC2)C(=O)N[C@@H]([C@@H](C)CC)C(=O)O[C@H]1C)[C@@H](C)CC`: the MIC turned out to be 0.5 µg/mL (≈ 0.417 µM) in the experiment on Staphylococcus aureus [1] and 2 µg/mL (≈ 1.67 µM) with Staphylococcus aureus [2].

For the origin of these results see ChEMBL document CHEMBL4184242, “Synthesis and antibacterial studies of teixobactin analogues with non-isostere substitution of enduracididine” (2018).
